Measured values from patent US20080114007A1 (priority 2006, published 2008).

These molecules were tested against CSF-1R (Homo sapiens, UniProt P07333) (assay: Peptide (non-phosphorylated) assay, fluorescence polarization competition immunoassay). Conditions: 0.7 nM CSF-1R, 308 μM SYEGNSYTFIDPTQ peptide, 1 mM ATP, 80 min; mean of at least three determinations; read-out: c-fms Peptide IC50.
Type: biochemical
Method: The kinase reaction was initiated by adding 1 μL of 10 mM ATP in assay buffer. […] Positive and negative control wells were included on each plate, where 4% DMSO in assay buffer was substituted for the compound; in addition, positive control wells received 1.2 μL of 50 mM EDTA before the start of the reaction.
The plates were covered and incubated at room temperature for 80 min. Reactions were stopped by addition of 1.2 μL of 50 mM EDTA. Each well then received 10 μL of a 1:1:3 mixture of 10× anti-phosphotyrosine antibody, 10×PTK green tracer, and FP dilution buffer, respectively (Cat. # P2837, Invitrogen, Carlsbad, Calif.). The plates were covered, incubated for 30 min at room temperature, and the fluorescence polarization was read on an Analyst plate reader (Molecular Devices).

Chain of CSF-1R (P07333 20-972): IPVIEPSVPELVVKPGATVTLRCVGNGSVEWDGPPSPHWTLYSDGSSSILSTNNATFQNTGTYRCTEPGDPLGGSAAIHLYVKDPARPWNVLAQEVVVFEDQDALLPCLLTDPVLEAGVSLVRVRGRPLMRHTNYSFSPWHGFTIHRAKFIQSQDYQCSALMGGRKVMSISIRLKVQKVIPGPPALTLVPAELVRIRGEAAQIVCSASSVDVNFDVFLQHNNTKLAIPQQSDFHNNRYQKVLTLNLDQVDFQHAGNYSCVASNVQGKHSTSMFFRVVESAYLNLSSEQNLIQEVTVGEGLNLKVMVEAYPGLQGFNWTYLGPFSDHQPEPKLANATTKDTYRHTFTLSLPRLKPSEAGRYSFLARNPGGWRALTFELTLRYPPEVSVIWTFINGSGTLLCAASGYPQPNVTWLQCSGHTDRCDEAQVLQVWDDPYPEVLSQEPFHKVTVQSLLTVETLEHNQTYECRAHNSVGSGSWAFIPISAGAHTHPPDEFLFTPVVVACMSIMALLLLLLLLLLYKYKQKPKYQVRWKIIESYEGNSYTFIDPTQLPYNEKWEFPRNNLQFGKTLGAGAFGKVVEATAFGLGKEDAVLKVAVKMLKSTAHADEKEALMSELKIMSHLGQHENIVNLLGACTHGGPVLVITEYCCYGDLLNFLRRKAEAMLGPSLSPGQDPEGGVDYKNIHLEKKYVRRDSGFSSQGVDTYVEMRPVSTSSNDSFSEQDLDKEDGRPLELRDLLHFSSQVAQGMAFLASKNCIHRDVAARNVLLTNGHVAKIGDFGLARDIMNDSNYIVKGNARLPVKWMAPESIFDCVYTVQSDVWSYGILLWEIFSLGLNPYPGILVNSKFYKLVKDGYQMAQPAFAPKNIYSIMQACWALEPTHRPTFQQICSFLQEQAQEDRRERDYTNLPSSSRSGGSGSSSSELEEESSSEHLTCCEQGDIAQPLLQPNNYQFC

SMILES | IC50
CONC(=O)c1cn(-c2ccc(C)c(C)c2)c2nc(Nc3ccc(CCN4CCN(C)CC4)cc3)ncc2c1=O [Cpd 52, 8-(3,4-dimethyl-phenyl)-2-{4-[2-(4-methyl-piperazin-1-yl)-ethyl]-phenylamino}-5-oxo-5,8-dihydro-pyrido[2,3-d]pyrimidine-6-carboxylic acid methoxy-amide] | 0.8 nM
CCONC(=O)c1cn(-c2ccc(C)c(C)c2)c2nc(Nc3ccc(CCN4CCN(C)CC4)cc3)ncc2c1=O [Cpd 53, 8-(3,4-dimethyl-phenyl)-2-{4-[2-(4-methyl-piperazin-1-yl)-ethyl]-phenylamino}-5-oxo-5,8-dihydro-pyrido[2,3-d]pyrimidine-6-carboxylic acid ethoxy-amide] | 0.5 nM
CCc1ccc(-n2cc(C(=O)NOC)c(=O)c3cnc(Nc4ccc(CCN5CCCC5=O)cc4)nc32)cc1 [Cpd 54, 8-(4-ethyl-phenyl)-5-oxo-2-{4-[2-(2-oxo-pyrrolidin-1-yl)-ethyl]-phenylamino}-5,8-dihydro-pyrido[2,3-d]pyrimidine-6-carboxylic acid methoxy-amide] | 1.8 nM
CCc1ccc(-n2cc(C(=O)NOC)c(=O)c3cnc(Nc4ccc(CCN5CCCC5)cc4)nc32)cc1 [Cpd 55, 8-(4-ethyl-phenyl)-5-oxo-2-[4-(2-pyrrolidin-1-yl-ethyl)-phenylamino]-5,8-dihydro-pyrido[2,3-d]pyrimidine-6-carboxylic acid methoxy-amide] | 0.51 nM
CCc1ccc(-n2cc(C(=O)NOC)c(=O)c3cnc(Nc4ccc(CCN5CCN(C)CC5)cc4)nc32)cc1 [Cpd 56, 8-(4-ethyl-phenyl)-2-{4-[2-(4-methyl-piperazin-1-yl)-ethyl]-phenylamino}-5-oxo-5,8-dihydro-pyrido[2,3-d]pyrimidine-6-carboxylic acid methoxy-amide] | 1.1 nM
CCONC(=O)c1cn(-c2ccc(CC)cc2)c2nc(Nc3ccc(CCN4CCN(C)CC4)cc3)ncc2c1=O [Cpd 57, 8-(4-ethyl-phenyl)-2-{4-[2-(4-methyl-piperazin-1-yl)-ethyl]-phenylamino}-5-oxo-5,8-dihydro-pyrido[2,3-d]pyrimidine-6-carboxylic acid ethoxy-amide] | 0.6 nM
CCc1ccc(-n2cc(C(=O)NOC(C)C)c(=O)c3cnc(Nc4ccc(C5CCNCC5)cc4)nc32)cc1 [Cpd 58, 8-(4-ethyl-phenyl)-5-oxo-2-(4-piperidin-4-yl-phenylamino)-5,8-dihydro-pyrido[2,3-d]pyrimidine-6-carboxylic acid isopropoxy-amide] | 1.6 nM
CCc1ccc(-n2cc(C(=O)NOC(C)C)c(=O)c3cnc(Nc4ccc(C5CCN(C(C)=O)CC5)cc4)nc32)cc1 [Cpd 59, 2-[4-(1-acetyl-piperidin-4-yl)-phenylamino]-8-(4-ethyl-phenyl)-5-oxo-5,8-dihydro-pyrido[2,3-d]pyrimidine-6-carboxylic acid isopropoxy-amide] | 4.5 nM
CCc1ccc(-n2cc(C(=O)NOC(C)C)c(=O)c3cnc(Nc4ccc(C5CCN(S(C)(=O)=O)CC5)cc4)nc32)cc1 [Cpd 60, 8-(4-ethyl-phenyl)-2-[4-(1-methanesulfonyl-piperidin-4-yl)-phenylamino]-5-oxo-5,8-dihydro-pyrido[2,3-d]pyrimidine-6-carboxylic acid isopropoxy-amide] | 7 nM
CONC(=O)c1cn(-c2ccc3c(c2)CCC3)c2nc(Nc3ccc(CCN4CCN(C)CC4)cc3)ncc2c1=O [Cpd 61, 8-indan-5-yl-2-{4-[2-(4-methyl-piperazin-1-yl)-ethyl]-phenylamino}-5-oxo-5,8-dihydro-pyrido[2,3-d]pyrimidine-6-carboxylic acid methoxy-amide] | 0.68 nM
CC(C)ONC(=O)c1cn(-c2ccc3c(c2)CCC3)c2nc(Nc3ccc(CCN4CCN(C)CC4)cc3)ncc2c1=O [Cpd 63, 8-indan-5-yl-2-{4-[2-(4-methyl-piperazin-1-yl)-ethyl]-phenylamino}-5-oxo-5,8-dihydro-pyrido[2,3-d]pyrimidine-6-carboxylic acid isopropoxy-amide] | 0.52 nM
CN1CCN(CCc2ccc(Nc3ncc4c(=O)c(C(=O)N5CCCCC5)cn(-c5ccc6c(c5)CCC6)c4n3)cc2)CC1 [Cpd 64, 8-indan-5-yl-2-{4-[2-(4-methyl-piperazin-1-yl)-ethyl]-phenylamino}-6-(piperidine-1-carbonyl)-8H-pyrido[2,3-d]pyrimidin-5-one] | 180 nM
CN1CCN(CCc2ccc(Nc3ncc4c(=O)c(C(=O)NCCO)cn(-c5ccc6c(c5)CCC6)c4n3)cc2)CC1 [Cpd 65, 8-indan-5-yl-2-{4-[2-(4-methyl-piperazin-1-yl)-ethyl]-phenylamino}-5-oxo-5,8-dihydro-pyrido[2,3-d]pyrimidine-6-carboxylic acid (2-hydroxy-ethyl)-amide] | 0.68 nM
O=C(NCCO)c1cn(-c2ccc3c(c2)CCC3)c2nc(Nc3cccc(N4CCNCC4)c3)ncc2c1=O [Cpd 66, 8-indan-5-yl-5-oxo-2-(3-piperazin-1-yl-phenylamino)-5,8-dihydro-pyrido[2,3-d]pyrimidine-6-carboxylic acid (2-hydroxy-ethyl)-amide] | 2.5 nM
CONC(=O)c1cn(-c2ccc3c(c2)CCC3)c2nc(Nc3ccc(C[C@H]4COC(=O)N4)cc3)ncc2c1=O [Cpd 67, (S)-8-indan-5-yl-5-oxo-2-[4-(2-oxo-oxazolidin-4-ylmethyl)-phenylamino]-5,8-dihydro-pyrido[2,3-d]pyrimidine-6-carboxylic acid methoxy-amide] | 1 nM
CCONC(=O)c1cn(-c2ccc3c(c2)CCC3)c2nc(Nc3ccc(C[C@H]4COC(=O)N4)cc3)ncc2c1=O [Cpd 68, (S)-8-indan-5-yl-5-oxo-2-[4-(2-oxo-oxazolidin-4-ylmethyl)-phenylamino]-5,8-dihydro-pyrido[2,3-d]pyrimidine-6-carboxylic acid ethoxy-amide] | 0.7 nM
CONC(=O)c1cn(-c2ccc3c(c2)CCC3)c2nc(Nc3ccc(C4CCN(C(C)=O)CC4)cc3)ncc2c1=O [Cpd 69, 2-[4-(1-acetyl-piperidin-4-yl)-phenylamino]-8-indan-5-yl-5-oxo-5,8-dihydro-pyrido[2,3-d]pyrimidine-6-carboxylic acid methoxy-amide] | 1.2 nM
CCONC(=O)c1cn(-c2ccc3c(c2)CCC3)c2nc(Nc3ccc(C4CCN(C(C)=O)CC4)cc3)ncc2c1=O [Cpd 70, 2-[4-(1-acetyl-piperidin-4-yl)-phenylamino]-8-indan-5-yl-5-oxo-5,8-dihydro-pyrido[2,3-d]pyrimidine-6-carboxylic acid ethoxy-amide] | 1.7 nM
CONC(=O)c1cn(-c2ccc3c(c2)CCC3)c2nc(Nc3ccc(CCS(C)(=O)=O)cc3)ncc2c1=O [Cpd 71, 8-indan-5-yl-2-[4-(2-methanesulfonyl-ethyl)-phenylamino]-5-oxo-5,8-dihydro-pyrido[2,3-d]pyrimidine-6-carboxylic acid methoxy-amide] | 0.64 nM
CONC(=O)c1cn(-c2ccc3c(c2)CCC3)c2nc(Nc3ccc(CCN4CCC5(CC4)OCCCO5)cc3)ncc2c1=O [Cpd 73, 2-{4-[2-(1,5-dioxa-9-aza-spiro[5.5]undec-9-yl)-ethyl]-phenylamino}-8-indan-5-yl-5-oxo-5,8-dihydro-pyrido[2,3-d]pyrimidine-6-carboxylic acid methoxy-amide] | 0.84 nM
CONC(=O)c1cn(-c2ccc3c(c2)CCC3)c2nc(Nc3ccc(CCN(C)C4CCOCC4)cc3)ncc2c1=O [Cpd 74, 8-indan-5-yl-2-(4-{2-[methyl-(tetrahydro-pyran-4-yl)-amino]-ethyl}-phenylamino)-5-oxo-5,8-dihydro-pyrido[2,3-d]pyrimidine-6-carboxylic acid methoxy-amide] | 0.62 nM
CONC(=O)c1cn(-c2ccc3c(c2)CCC3)c2nc(Nc3ccc(C4CCNCC4)cc3)ncc2c1=O [Cpd 75, 8-indan-5-yl-5-oxo-2-(4-piperidin-4-yl-phenylamino)-5,8-dihydro-pyrido[2,3-d]pyrimidine-6-carboxylic acid methoxy-amide] | 0.53 nM
CONC(=O)c1cn(-c2ccc3c(c2)CCC3)c2nc(Nc3ccc(C4CCN(S(C)(=O)=O)CC4)cc3)ncc2c1=O [Cpd 76, 8-indan-5-yl-2-[4-(1-methanesulfonyl-piperidin-4-yl)-phenylamino]-5-oxo-5,8-dihydro-pyrido[2,3-d]pyrimidine-6-carboxylic acid methoxy-amide] | 0.83 nM
CONC(=O)c1cn(-c2ccc3c(c2)CCC3)c2nc(Nc3ccc(CCS(=O)(=O)NC(C)C)cc3)ncc2c1=O [Cpd 77, 8-indan-5-yl-2-[4-(2-isopropylsulfamoyl-ethyl)-phenylamino]-5-oxo-5,8-dihydro-pyrido[2,3-d]pyrimidine-6-carboxylic acid methoxy-amide] | 0.95 nM
CONC(=O)c1cn(-c2ccc3c(c2)CCC3)c2nc(Nc3ccc(C4CCN(CCS(C)(=O)=O)CC4)cc3)ncc2c1=O [Cpd 78, 8-indan-5-yl-2-{4-[1-(2-methanesulfonyl-ethyl)-piperidin-4-yl]-phenylamino}-5-oxo-5,8-dihydro-pyrido[2,3-d]pyrimidine-6-carboxylic acid methoxy-amide] | 0.72 nM
CONC(=O)c1cn(-c2ccc3c(c2)CCC3)c2nc(Nc3ccc(CCO)cc3)ncc2c1=O [Cpd 79, 2-[4-(2-hydroxy-ethyl)-phenylamino]-8-indan-5-yl-5-oxo-5,8-dihydro-pyrido[2,3-d]pyrimidine-6-carboxylic acid methoxy-amide] | 0.87 nM
